In ChEMBL document CHEMBL1201862, “PubChem BioAssay data set” (2004):
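Cultured in 96-well plates, cells were exposed to test compound for 48 hours across five concentrations. At the GI50, growth is halved.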 Active and inactive are the calls of the source. Rule as the data show it: active = GI50 up to about 1.1 µM and inactive = higher.

How the values were obtained:
Test in all cases: inhibition of tumour cell growth, NCI panel, 48 h
[1] = system: SF-295
[2] = system: SK-MEL-5
[3] = system: CCRF-CEM
[4] = system: M19-MEL
[5] = system: OVCAR-3
[6] = system: SK-MEL-2
[7] = system: ACHN
[8] = system: SK-OV-3
[9] = system: SN12C
[10] = system: SK-MEL-28
[11] = system: K562
[12] = system: A549
[13] = system: MOLT-4
[14] = system: 786-0
[15] = system: SF-539
[16] = system: U-251
[17] = system: OVCAR-5
[18] = system: OVCAR-8
[19] = system: SF-268
[20] = system: SNB-75
[21] = system: HCC 2998
[22] = system: DLD-1
[23] = system: NCI-H460
[24] = system: HCT-116
[25] = system: M14
[26] = system: A498
[27] = system: LOX IMVI
[28] = system: Malme-3M
[29] = system: HL-60
[30] = system: SNB-19
[31] = system: HOP-62
[32] = system: HOP-92
[33] = system: KM12
[34] = system: IGROV-1
[35] = system: KM-20L2
[36] = system: COLO 205
[37] = system: NCI-H23
[38] = system: UO-31
[39] = system: UACC-257
[40] = system: RPMI-8226
[41] = system: SW-620
[42] = system: HCT-15
[43] = system: RXF 393
[44] = system: UACC-62
[45] = system: SNB-78
[46] = system: HT-29
[47] = system: DMS-114
[48] = system: TK-10
[49] = system: EKVX
[50] = system: LXFL 529
[51] = system: CAKI-1
[52] = system: NCI-H226
[53] = system: NCI-H522
[54] = system: DMS-273
[55] = system: HOP-18

O=C(O)/C(=C/C=C/c1ccccc1)c1csc(-c2nc(/C(=C\C=C\c3ccccc3)C(=O)O)cs2)n1
GI50 [1]: 31.6 µM (inactive) | GI50 [2]: 33 µM (inactive) | GI50 [3]: 19.7 µM (inactive) | GI50 [4]: 31.1 µM (inactive) | GI50 [5]: 23.4 µM (inactive) | GI50 [6]: 17.4 µM (inactive) | GI50 [7]: 28 µM (inactive) | GI50 [8]: 57.3 µM (inactive) | GI50 [9]: 28.7 µM (inactive) | GI50 [10]: 33 µM (inactive) | GI50 [11]: 21.9 µM (inactive) | GI50 [12]: 43.8 µM (inactive) | GI50 [13]: 1.69 µM (inactive) | GI50 [14]: 23.2 µM (inactive) | GI50 [15]: 21.2 µM (inactive) | GI50 [16]: 38.5 µM (inactive) | GI50 [17]: > 100 µM (inactive) | GI50 [18]: 44.8 µM (inactive) | GI50 [19]: 30.7 µM (inactive) | GI50 [20]: 28.1 µM (inactive) | GI50 [21]: 20.1 µM (inactive) | GI50 [22]: 12.6 µM (inactive) | GI50 [23]: 40.8 µM (inactive) | GI50 [24]: 17.7 µM (inactive) | GI50 [25]: 22.9 µM (inactive) | GI50 [26]: 68.2 µM (inactive) | GI50 [27]: 29.5 µM (inactive) | GI50 [28]: 27.2 µM (inactive) | GI50 [29]: 17.5 µM (inactive) | GI50 [30]: 11.5 µM (inactive) | GI50 [31]: 18 µM (inactive) | GI50 [32]: 19.6 µM (inactive) | GI50 [33]: 27.9 µM (inactive) | GI50 [34]: 32.7 µM (inactive) | GI50 [35]: 35.8 µM (inactive) | GI50 [36]: 22.3 µM (inactive) | GI50 [37]: > 10 µM (inactive) | GI50 [38]: 18.5 µM (inactive) | GI50 [39]: 34.9 µM (inactive) | GI50 [40]: 22.7 µM (inactive) | GI50 [41]: 39.4 µM (inactive) | GI50 [42]: 23.4 µM | GI50 [43]: 25.2 µM (inactive) | GI50 [44]: 28.8 µM (inactive) | GI50 [45]: 27.2 µM (inactive) | GI50 [46]: 38.2 µM (inactive) | GI50 [47]: 23.7 µM (inactive) | GI50 [48]: > 100 µM (inactive) | GI50 [49]: > 100 µM (inactive) | GI50 [50]: 24.7 µM (inactive)

C=CCCCCCCCC(O)C1C[C@H](O)C(CCCCC)O1 (some centres undefined)
GI50 [51]: 17.9 µM (inactive) | GI50 [1]: 17.6 µM (inactive) | GI50 [2]: 18.3 µM (inactive) | GI50 [3]: 19.3 µM (inactive) | GI50 [4]: 19.1 µM (inactive) | GI50 [5]: 17.5 µM (inactive) | GI50 [52]: 13.4 µM (inactive) | GI50 [7]: 16.9 µM (inactive) | GI50 [8]: 20.4 µM (inactive) | GI50 [53]: 17.1 µM (inactive) | GI50 [9]: 19.5 µM (inactive) | GI50 [10]: 17.9 µM (inactive) | GI50 [11]: 20.7 µM (inactive) | GI50 [12]: 19.4 µM (inactive) | GI50 [13]: 17.7 µM (inactive) | GI50 [14]: 17.9 µM (inactive) | GI50 [15]: 15.8 µM (inactive) | GI50 [16]: 16 µM (inactive) | GI50 [54]: 18.1 µM (inactive) | GI50 [18]: 19.9 µM (inactive) | GI50 [20]: 15.2 µM (inactive) | GI50 [21]: 17.9 µM (inactive) | GI50 [22]: 17.3 µM (inactive) | GI50 [23]: 18.9 µM (inactive) | GI50 [24]: 17.6 µM (inactive) | GI50 [25]: 17.7 µM (inactive) | GI50 [26]: 19.8 µM (inactive) | GI50 [27]: 19.6 µM (inactive) | GI50 [28]: 17.3 µM (inactive) | GI50 [29]: 17.5 µM (inactive) | GI50 [32]: 15.7 µM (inactive) | GI50 [33]: 19.5 µM (inactive) | GI50 [34]: 20.2 µM (inactive) | GI50 [36]: 18.5 µM (inactive) | GI50 [37]: 16.9 µM (inactive) | GI50 [38]: 17.8 µM (inactive) | GI50 [39]: > 10 µM (inactive) | GI50 [40]: 17.1 µM (inactive) | GI50 [41]: 21.1 µM (inactive) | GI50 [42]: 21.5 µM | GI50 [43]: 17.1 µM (inactive) | GI50 [44]: 15 µM (inactive) | GI50 [45]: 20 µM (inactive) | GI50 [46]: 18.6 µM (inactive) | GI50 [47]: 17.3 µM (inactive) | GI50 [55]: 17.9 µM (inactive) | GI50 [48]: 19 µM (inactive) | GI50 [49]: 19.5 µM (inactive) | GI50 [50]: 15.5 µM (inactive)
